Laboratory results reported in PubChem BioAssay AID2060512 (Molecular Pharmacology Branch, DTP, NCI, 2025).
Several values for one entry are separate records, joined by “and”; a condition that tells them apart may be missing. Equal values may be shown once.

Test system: 186277-243-T-J2-PDC complex spheroid viability
Experiment: Anticancer human tumor 186277-243-T-J2-PDC patient-derived colon adenocarcinoma cell line growth inhibition [GQUAD]
Details: for viability, T/C: stronger effect = lower value
Excerpt: DNA G-quadruplex Stabilizer Agents in Combinations in Complex Spheroids
A high-throughput screen of multi-cell type tumor spheroids was designed to identify active combinations of DNA G-quadruplex stabilizer agents and targeted small molecules. Complex spheroids include a stromal component modeled by human endothelial cells (HUVEC) and fibroblasts modeled by human mesenchymal stem cells (MSCs). The concentration ranges selected for each drug and investigational agent were based upon clinically achievable concentrations if the clinical Cmax of the agent was known.
Compounds. The drugs and investigational agents: pidnarulex (CX-5461; NSC782164), APTO-253 (NSC789042), BRACO-19 (NSC847499), peposertib (NSC802822), ceralasertib (NSC780249), elimusertib (NSC800525), camonsertib (NSC841442), AZD-1390 (NSC803789), olaparib (NSC753686), talazoparib (NSC767125), ART-558 (NSC835418), sotorasib (NSC818433), MRTX-1133 (NSC836407), SN-38 (NSC673596), topotecan (NSC609699), etoposide (NSC141540), doxorubicin (NSC123127), gemcitabine (NSC613327), 5-fluorouracil (NSC19893), paclitaxel (NSC125973), vemurafenib (NSC761431), panobinostat (NSC761190), R-306465 (JNJ-16241199; NSC773264), adavosertib (NSC754352), TP-3654 (NSC805149), carboplatin (NSC241240), KSQ-4279 (NSC840948), and staurosporine (NSC755774) were obtained from the National Cancer Institute (NCI) Developmental Therapeutics Program Chemical Repository (34). The FDA-approved anticancer drug set is available from the NCI Developmental Therapeutics Program. […] The stock solutions were prepared in dimethyl sulfoxide (DMSO, Sigma-Aldrich, St. Louis, MO, cat. D2650) at 800-fold the tested concentration and stored at -70 degrees C prior to their use. All drugs and investigational agents were tested over a range starting from a high concentration at or near the clinical Cmax and decreasing in half-log increments. If the clinical Cmax for an agent had not been determined, the highest concentration tested was 10 microM.
2.3 Cell Culture. All cells were maintained in an incubator at 37 degrees C and 5% CO2 with 95% humidity. The PDC lines were cultured according to standard operating procedures established by the NCI PDMR. All PDCs were thawed and cultured in Matrigel-coated flasks prepared with a working solution of 1X Ham's F-12 nutrient mix, without supplementation (Invitrogen, cat. 11765054), 100 U/mL penicillin-streptomycin (Invitrogen, cat. 15140122), and 2.5% Matrigel (Corning Inc., cat. 354248) for the first three passages. The 857933-349-R-J2-PDC line was cultured in 6C/Colon 1B media, which includes advanced DMEM/F-12 (Thermo Fisher Scientific, cat. 12634028), 10 mM HEPES (Thermo Fisher Scientific, cat. 15630080), 1X GlutaMAX supplement (Thermo Fisher Scientific, cat. 35050061), 0.1 mg/mL primocin (InvivoGen, cat. ant-pm-2), 10% defined fetal bovine serum, heat inactivated (HyClone Laboratories Inc., cat. SH30070.03HI), 50% L-WRN conditioned media (ATCC, cat. CRL-3276), 1.25 mM N-Acetyl-L-cysteine (Sigma-Aldrich, cat. A9165), 10 mM nicotinamide (Sigma-Aldrich, cat. N0636), 1X B-27 supplement (Thermo Fisher Scientific, cat. 17504044), 1X N-2 supplement (Thermo Fisher Scientific, cat. 17502048), 10 microM Y-27632 dihydrochloride (Tocris Bioscience, cat. 1254), and 50 ng/mL human EGF recombinant protein (Thermo Fisher Scientific, cat. PHG0311). The 485176-168-R4-J1-PDC line was cultured in Panc media, which includes all 6C/Colon 1B media components plus 100 ng/mL human FGF-10 (Thermo Fisher Scientific, cat. 100-26), 500 nM SB-431542 (Selleckchem, cat. S1067), and gastrin (Tocris, cat. 3006).
[…]

[1] = curve of first compound, second compound 0.0316 µM
[2] = curve of first compound, second compound 0.1 µM
[3] = curve of first compound, second compound 0.316 µM
[4] = curve of first compound, second compound 1 µM
[5] = curve of first compound, second compound 3.16 µM
[6] = curve of first compound, second compound 10 µM
[7] = second compound 0.0316 µM, first compound 0.0316 µM
[8] = second compound 0.0316 µM, first compound 0.1 µM
[9] = second compound 0.0316 µM, first compound 0.316 µM
[10] = second compound 0.0316 µM, first compound 1 µM
[11] = second compound 0.0316 µM, first compound 3.16 µM
[12] = second compound 0.0316 µM, first compound 10 µM
[13] = second compound 0.1 µM, first compound 0.0316 µM
[14] = second compound 0.1 µM, first compound 0.1 µM
[15] = second compound 0.1 µM, first compound 0.316 µM
[16] = second compound 0.1 µM, first compound 1 µM
[17] = second compound 0.1 µM, first compound 3.16 µM
[18] = second compound 0.1 µM, first compound 10 µM
[19] = second compound 0.316 µM, first compound 0.0316 µM
[20] = second compound 0.316 µM, first compound 0.1 µM
[21] = second compound 0.316 µM, first compound 0.316 µM
[22] = second compound 0.316 µM, first compound 1 µM
[23] = second compound 0.316 µM, first compound 3.16 µM
[24] = second compound 0.316 µM, first compound 10 µM
[25] = second compound 1 µM, first compound 0.0316 µM
[26] = second compound 1 µM, first compound 0.1 µM
[27] = second compound 1 µM, first compound 0.316 µM
[28] = second compound 1 µM, first compound 1 µM
[29] = second compound 1 µM, first compound 3.16 µM
[30] = second compound 1 µM, first compound 10 µM
[31] = second compound 3.16 µM, first compound 0.0316 µM
[32] = second compound 3.16 µM, first compound 0.1 µM
[33] = second compound 3.16 µM, first compound 0.316 µM
[34] = second compound 3.16 µM, first compound 1 µM
[35] = second compound 3.16 µM, first compound 3.16 µM
[36] = second compound 3.16 µM, first compound 10 µM
[37] = second compound 10 µM, first compound 0.0316 µM
[38] = second compound 10 µM, first compound 0.1 µM
[39] = second compound 10 µM, first compound 0.316 µM
[40] = second compound 10 µM, first compound 1 µM
[41] = second compound 10 µM, first compound 3.16 µM
[42] = second compound 10 µM, first compound 10 µM
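Note: spheroids exposed to drugs for 7 days.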
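Throughout, for viability, T/C: 100% = DMSO vehicle control viability.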

Cn1ncnc1[C@H]1c2n[nH]c(=O)c3cc(F)cc(c23)N[C@@H]1c1ccc(F)cc1
viability, T/C (compound 0.000999 µM): 99.3% and 96.1% and 115% | viability, T/C (compound 0.00316 µM): 93.5% and 96.6% and 91% | viability, T/C (compound 0.00999 µM): 94.1% and 100% and 98.4% | viability, T/C (compound 0.0316 µM): 111% and 110% and 97.4% | viability, T/C (compound 0.0999 µM): 87.5% and 91.4% and 106% | viability, T/C (compound 0.316 µM): 92.4% and 86.5% and 90.8% | IC50 (curve of compound): > 0.316 µM

COc1ncnc(C2CC2)c1-c1ncc2cnn(Cc3ccc(-c4nc(C(F)(F)F)cn4C(C)C)cc3)c2n1
viability, T/C (compound 0.0316 µM): 90% and 113% and 103% | viability, T/C (compound 0.1 µM): 95.5% and 108% and 94% | viability, T/C (compound 0.316 µM): 90.5% and 94.9% and 102% | viability, T/C (compound 1 µM): 88.4% and 101% and 105% | viability, T/C (compound 3.16 µM): 96% and 96.8% and 92.5% | viability, T/C (compound 10 µM): 76.6% and 96.9% and 106% | IC50 (curve of compound): > 10 µM

COc1cccc2c1C(=O)c1c(O)c3c(c(O)c1C2=O)CC(O)(C(=O)CO)CC3OC1CC(N)C(O)C(C)O1 (stereo not given)
viability, T/C (compound 0.0316 µM): 108% and 97.9% and 88.6% | viability, T/C (compound 0.1 µM): 117% and 91.2% and 90.2% | viability, T/C (compound 0.316 µM): 83.2% and 57.1% and 66.7% | viability, T/C (compound 1 µM): 29.7% and 15.8% and 22.8% | viability, T/C (compound 3.16 µM): 4.47% and 0.22% and 0.3% | viability, T/C (compound 10 µM): 0.23% and 0.19% and 0.13% | IC50 (curve of compound): 0.649 µM and 0.388 µM and 0.494 µM

COc1cc(C2c3cc4c(cc3C(OC3OC5COC(C)OC5C(O)C3O)C3COC(=O)C23)OCO4)cc(OC)c1O (stereo not given) + CN(C)c1ccc(Nc2c3ccc(NC(=O)CCN4CCCC4)cc3nc3cc(NC(=O)CCN4CCCC4)ccc23)cc1
IC50 [1]: 0.767 µM | IC50 [2]: 0.757 µM | IC50 [3]: 0.915 µM | IC50 [4]: 0.808 µM | IC50 [5]: 1.34 µM | IC50 [6]: 1.46 µM | viability, T/C [7]: 112% | viability, T/C [8]: 99.4% | viability, T/C [9]: 74.2% | viability, T/C [10]: 38.9% | viability, T/C [11]: 35% | viability, T/C [12]: 18.6% | viability, T/C [13]: 91.5% | viability, T/C [14]: 94.5% | viability, T/C [15]: 72.3% | viability, T/C [16]: 40.4% | viability, T/C [17]: 34.6% | viability, T/C [18]: 18.6% | viability, T/C [19]: 113% | viability, T/C [20]: 96.7% | viability, T/C [21]: 80.5% | viability, T/C [22]: 42.8% | viability, T/C [23]: 31.7% | viability, T/C [24]: 15.6% | viability, T/C [25]: 105% | viability, T/C [26]: 107% | viability, T/C [27]: 74.6% | viability, T/C [28]: 42.9% | viability, T/C [29]: 32.9% | viability, T/C [30]: 17.5% | viability, T/C [31]: 115% | viability, T/C [32]: 102% | viability, T/C [33]: 81.1% | viability, T/C [34]: 49.6% | viability, T/C [35]: 39.9% | viability, T/C [36]: 16% | viability, T/C [37]: 107% | viability, T/C [38]: 74.5% | viability, T/C [39]: 88.6% | viability, T/C [40]: 50.9% | viability, T/C [41]: 37.2% | viability, T/C [42]: 15.5%

CCCS(=O)(=O)Nc1ccc(F)c(C(=O)c2c[nH]c3ncc(-c4ccc(Cl)cc4)cc23)c1F + Cc1cnc(CNC(=O)c2c(=O)c3ccc(N4CCCN(C)CC4)nc3n3c2sc2ccccc23)cn1
IC50 [1]: 6.12 µM | IC50 [2]: 4.93 µM | IC50 [3]: 4.41 µM | IC50 [4]: < 0.0316 µM | IC50 [5]: < 0.0316 µM | IC50 [6]: < 0.0316 µM | viability, T/C [7]: 113% | viability, T/C [8]: 102% | viability, T/C [9]: 116% | viability, T/C [10]: 95.4% | viability, T/C [11]: 88.3% | viability, T/C [12]: 23.4% | viability, T/C [13]: 79.3% | viability, T/C [14]: 72.4% | viability, T/C [15]: 93.1% | viability, T/C [16]: 74.1% | viability, T/C [17]: 72.3% | viability, T/C [18]: 14.5% | viability, T/C [19]: 63.6% | viability, T/C [20]: 62.3% | viability, T/C [21]: 68.5% | viability, T/C [22]: 59% | viability, T/C [23]: 65.7% | viability, T/C [24]: 16.1% | viability, T/C [25]: 47.7% | viability, T/C [26]: 47% | viability, T/C [27]: 54.8% | viability, T/C [28]: 49.3% | viability, T/C [29]: 47.5% | viability, T/C [30]: 15.8% | viability, T/C [31]: 31.3% | viability, T/C [32]: 43.9% | viability, T/C [33]: 48.8% | viability, T/C [34]: 41% | viability, T/C [35]: 38.3% | viability, T/C [36]: 9.83% | viability, T/C [37]: 47.6% | viability, T/C [38]: 36.8% | viability, T/C [39]: 37.3% | viability, T/C [40]: 40.4% | viability, T/C [41]: 37.8% | viability, T/C [42]: 0.36%
